# According to ChEMBL document CHEMBL1201862, “PubChem BioAssay data set” (2004):
#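 Tested at 5 concentrations; 48 h exposure; 96-well plates; endpoints linearly interpolated, else capped at highest concentration. Abbreviation: GI50, concentration required for 50% inhibition of growth.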 Active and inactive are the calls of the source. Cut-off read from the data, not from the text of the source: active = GI50 up to about 1.1 µM and inactive = higher.
# What was measured:
# Experiment in all cases: inhibition of tumour cell growth, NCI panel, 48 h
# [1] = test system: 786-0
# [2] = test system: A498
# [3] = test system: A549
# [4] = test system: ACHN
# [5] = test system: CAKI-1
# [6] = test system: CCRF-CEM
# [7] = test system: COLO 205
# [8] = test system: DU-145
# [9] = test system: EKVX
# [10] = test system: HCC 2998
# [11] = test system: HCT-15
# [12] = test system: HL-60
# [13] = test system: HOP-62
# [14] = test system: HOP-92
# [15] = test system: HT-29
# [16] = test system: Hs-578T
# [17] = test system: IGROV-1
# [18] = test system: K562
# [19] = test system: KM12
# [20] = test system: LOX IMVI
# [21] = test system: M14
# [22] = test system: MCF7
# [23] = test system: MDA-MB-231
# [24] = test system: MDA-MB-435
# [25] = test system: MDA-N
# [26] = test system: MOLT-4
# [27] = test system: Malme-3M
# [28] = test system: NCI-H226
# [29] = test system: NCI-H23
# [30] = test system: NCI-H460
# [31] = test system: NCI-H522
# [32] = test system: NCI/ADR-RES
# [33] = test system: OVCAR-3
# [34] = test system: OVCAR-4
# [35] = test system: OVCAR-5
# [36] = test system: OVCAR-8
# [37] = test system: PC-3
# [38] = test system: RPMI-8226
# [39] = test system: RXF 393
# [40] = test system: SF-268
# [41] = test system: SF-295
# [42] = test system: SF-539
# [43] = test system: SK-MEL-28
# [44] = test system: SK-MEL-2
# [45] = test system: SK-MEL-5
# [46] = test system: SK-OV-3
# [47] = test system: SNB-19
# [48] = test system: SNB-75
# [49] = test system: SR
# [50] = test system: SW-620
# [51] = test system: T47D
# [52] = test system: TK-10
# [53] = test system: U-251
# [54] = test system: UACC-257
# [55] = test system: UACC-62
# [56] = test system: UO-31
smiles,measurement,setting,value
CN(C)/N=C1\C=C2CC[C@H](O[Si](C)(C)C(C)(C)C)[C@@]2(C)CC1,GI50,[1],18 µM (inactive)
same,GI50,[2],17.8 µM (inactive)
same,GI50,[3],19.5 µM (inactive)
same,GI50,[4],16.5 µM (inactive)
same,GI50,[5],14.3 µM (inactive)
same,GI50,[6],11.8 µM (inactive)
same,GI50,[7],16.9 µM (inactive)
same,GI50,[8],15.8 µM (inactive)
same,GI50,[9],21.7 µM (inactive)
same,GI50,[10],16.9 µM (inactive)
same,GI50,[11],17.6 µM
same,GI50,[12],7.93 µM (inactive)
same,GI50,[13],17.9 µM (inactive)
same,GI50,[14],15.2 µM (inactive)
same,GI50,[15],19 µM (inactive)
same,GI50,[16],18.1 µM (inactive)
same,GI50,[17],21.7 µM (inactive)
same,GI50,[18],15.5 µM (inactive)
same,GI50,[19],16.4 µM (inactive)
same,GI50,[20],18.3 µM (inactive)
same,GI50,[21],18.2 µM (inactive)
same,GI50,[22],15.6 µM (inactive)
same,GI50,[23],16.6 µM (inactive)
same,GI50,[24],16.4 µM (inactive)
same,GI50,[25],19.9 µM (inactive)
same,GI50,[26],12.9 µM (inactive)
same,GI50,[27],15.6 µM (inactive)
same,GI50,[28],20.3 µM (inactive)
same,GI50,[29],23.2 µM (inactive)
same,GI50,[30],17.3 µM (inactive)
same,GI50,[31],10.4 µM (inactive)
same,GI50,[32],18.2 µM (inactive)
same,GI50,[33],14.5 µM (inactive)
same,GI50,[34],14.9 µM (inactive)
same,GI50,[35],16.9 µM (inactive)
same,GI50,[36],16.9 µM (inactive)
same,GI50,[37],14.1 µM (inactive)
same,GI50,[38],4.4 µM (inactive)
same,GI50,[39],14.2 µM (inactive)
same,GI50,[40],19.7 µM (inactive)
same,GI50,[41],16.4 µM (inactive)
same,GI50,[42],26.2 µM (inactive)
same,GI50,[43],15.9 µM (inactive)
same,GI50,[44],16.2 µM (inactive)
same,GI50,[45],12.4 µM (inactive)
same,GI50,[46],24.9 µM (inactive)
same,GI50,[47],17.7 µM (inactive)
same,GI50,[48],16.3 µM (inactive)
same,GI50,[49],18.6 µM (inactive)
same,GI50,[50],17.5 µM (inactive)
same,GI50,[51],12.2 µM (inactive)
same,GI50,[52],19.7 µM (inactive)
same,GI50,[53],16.2 µM (inactive)
same,GI50,[54],16.7 µM (inactive)
same,GI50,[55],15.1 µM (inactive)
same,GI50,[56],16.3 µM (inactive)
